Like-named read-outs stand apart in the source and are kept apart here.
Key:
[1] = test system: rat hepatoma cells; test: Cholesterol Esterification Assay (esterification of plasma membrane cholesterol); format: cell-based
Description: Table 1. […] Table 1. Effects of synthetic and plant-derived compounds on cholesterol homeostasis. […]

[2] = test system: Shh-N; test: Intermediate neural plate explant response to exogenous Shh-N protein; format: cell-based, chick; conditions: for concentration that inhibits the repression of Pax7 expression by 2 nM Shh-N: 20 hours; for doses at which HNF3β and Isl-1 induction are completely blocked / intermediate levels at which induction of HNF3β is blocked while induction of Isl-1 is maintained or expanded: 25 nM Shh-N
[3] = molecular target: T1, Shh (Mus musculus, UniProt Q62226); test: Shh autoprocessing in stably transfected HK293 cells (immunoblot); format: cell-based; conditions: added during the 24-hour induction period; doses up to 5-fold higher than those required to completely inhibit Shh signaling
T1 construct: expressed in transfected cells; host or cells: HK293 cells, Ecdysone-Inducible Mammalian Expression System (Invitrogen)
Description: To examine potential effects of these compounds on Shh processing we utilized HK293 cells cultured in lipid-depleted serum and carrying a stable integrated construct for expression of Shh under ecdysone-inducible control (47). Shh protein expression in these cells can be induced by addition of muristerone A, an ecdysone analog.
• 1. M. Hammerschmidt, A. Brook, A. P. McMahon, Trends Genet, 13, 14-21 (1997). • 2. C. Chiang, et al., Nature, 383,407-413 (1996). • 3. Y. Tanabe, T. M. Jessell, Science 274, 1115-1123 (1996). • 4. T. P. Yamaguchi, Curr. Opin. Genet. Dev. 7, 513-518 (1997). • 5. N. Shubin, C. Tabin, S. Carroll, Nature 388, 639-648 (1997). • 6. A. E. Oro, et al., Science 276, 817-821 (1997). • 7. M. M. Cohen, K. K. Sulik, J. Craniofac. Genet. Deve. Biol. 12, 196-244 (1992). • 8. E. Belloni, et al., Nature Genet. 14, 353-356 (1996). • 9. E. Roessler, et al., Nature Genet. 14, 357-360 (1996). • 10. J. A. Porter, et al., Nature 374, 363-366 (1995). • 11. J. A. Porter, K. E. Young, P. A. Beacy, Science 274, 255-259 (1996b). • 12. J. J. Lee, et al., Science 266, 1528-1537 (1994). • 13. J. A. Porter, et al., Cell 86, 21-34 (1996a). • 14. C. Roux, Arch. Franc. Pediatr. 21, 451-464 (1964). • 15. C. Roux, C. R. Soc. Biol. 160, 1353-1357 (1966). • 16. D. B. Dehart, L. Lanoue, G. S. Tinit, K. K. Sulik, Am J. Med. Genet. 68, 328-337 (1997). • 17. M. Kraml, J. F. Bagli, D. Dvornik, Biochem. and Biophysical Res. Com. 15, 455-457 (1964). • 18. J. Avigan, D. Steinberg, H. E. Vroman, M. J. Thompson, E. Mosettig, J. Biol. Chem 235, 3123-3126 (1960). • 19. R. B. Clayton, A. N. Nelson, I. D. Frantz Jr., J. Lipid Res. 4, 166-178 (1963). • 20. J. Aufenanger, J. Pill, K. Stegmeier, F. H. Schmidt, Horm. Metabol. Res. 17, 612-613 (1986). • 21. […] G. Popjak, A. Meenean, E. J. Parish, W. D. Nes, J. Biol. Chem 264,6230-6238 (1989). • 23. H. Yoshikawa, Brain Deve. 13, 115-120 (1991). • 24. R. I. Kelley, et al., Am. J. Of Med. Gen. 66, 478-484 (1996). • 25. G. S. Tint, et al., New England Journal of Medicine 330, 107-113 (1994). • 26. T.E. Willnow, et al., Proc. Natl. Acad. Sci USA 93, 8460-8464 (1996). • 27. S. Stefansson, D. A. Chappell, K. M. Argraves, D. K. Strickland, W. S. Argraves, J. Biol. Chem. 270, 19417-19421 (1995). • 28. W. Binns, L. F. James, J. L. Shupe, G. Everett, Am. J. Vet. Res. 24, 1164-1174 (1963). • 29. R. F. Keeler, W. Binns, Teratology 1, 5-10 (1968). • 30. P. A. Beachy, et al., CSH Symp. Quant. Biol. 62, in press (1997). • 31. E. D. Carstea, et al., Science 277, 228-231 (1997). • 32. S. K. Loftus, et al., Science 277, 232-235 […]. • 33. L. V. Goodrich, L. Milenkovic, K. M. Higgins, M. P. Scott, Science 277, 1109-1113 (1997). • 34. H. Kumagai, K. T. Chun, R. D. Simoni, J. Biol. Chem. 270, 19107-19113 (1995). • 35. G. Gil, J. R. Faust, D. J. Chin, J. L. Goldstien, M. S. Brown, Cell 41, 249-258 (1985). • 36. X. Hua, A. Nohturfft, J. L. Goldstein, M. S. Brown, Cell 87, 415-426 (1996). • 37. M. S. Brown, J. L. Goldstein, Cell 89, 331-340 (1997). • 38. M. M. Bryden, C. Perry, R. F. Keeler, Teratology 8, 18-28 (1973). • 39. M. L. Omnell, F. R. P. Sim, R. F. Keeler, L. C. Harne, K. W. Brown, Teratology 42, 105-119 (1990). • 40. Fertile chick eggs (white leghorn) were placed in a humidified incubator at 37.5° C in a rotating tray for 14 hours. […] The window was taped and the eggs incubated for an additional 4 days. The embryos were dissected in phosphate buffered saline (PBS, pH 7.2).

[4] = test system: primary human lymphoblasts; test: Cholesterol Biosynthesis Assay (sterol profiles of cultured cells); format: cell-based; conditions: five days
[5] = test system: endogenous Shh signaling; test: Midline neural plate/notochord explant assay of endogenous Shh signaling; format: cell-based, chick; conditions: midline explants, two days of culture
[6] = read-out: Percent Inhibition (incorporation of label into cholesteryl ester*) ^3H-Cholesterol
[7] = read-out: Percent Inhibition (incorporation of label into cholesteryl ester*) ^14C-Oleic Acid

T1 sequence (Q62226 25-437): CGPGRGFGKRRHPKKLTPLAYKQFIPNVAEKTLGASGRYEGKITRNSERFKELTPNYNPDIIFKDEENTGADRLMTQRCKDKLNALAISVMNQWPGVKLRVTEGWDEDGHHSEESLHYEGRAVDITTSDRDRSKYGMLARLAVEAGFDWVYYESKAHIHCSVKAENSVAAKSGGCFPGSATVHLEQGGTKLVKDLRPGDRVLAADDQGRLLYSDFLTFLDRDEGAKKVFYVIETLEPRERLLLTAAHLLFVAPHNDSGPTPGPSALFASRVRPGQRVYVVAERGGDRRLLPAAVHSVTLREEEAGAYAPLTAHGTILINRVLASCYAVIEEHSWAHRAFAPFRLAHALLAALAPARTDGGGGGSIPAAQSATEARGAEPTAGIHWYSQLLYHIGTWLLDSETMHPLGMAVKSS

Structure (SMILES)	inhibition at 2.5 µM [1, 6] [%]	inhibition at 2.5 µM [1, 7] [%]	inhibition at 5 µM [1, 6] [%]	inhibition at 5 µM [1, 7] [%]	inhibition at 10 µM [1, 6] [%]	inhibition at 10 µM [1, 7] [%]	concentration that inhibits the repression of Pax7 expression by 2 nM Shh-N [2] [µM]	doses at which HNF3β and Isl-1 induction are completely blocked [2] [µM]	intermediate levels at which induction of HNF3β is blocked while induction of Isl-1 is maintained or expanded [2] [µM]	Shh-Np production and accumulation of unprocessed precursor [3]	Percent Sterols: Cholesterol ([4]; 0.25 µM) [%]	Percent Sterols: b. 7 Dehydrodesmosterol ([4]; 0.25 µM) [%]	Percent Sterols: c. Cholesta-7,24-dien-3ß-ol ([4]; 0.25 µM) [%]	Percent Sterols: e. Cholesta-8(14)-en-3ß-ol ([4]; 0.25 µM) [%]	Total Sterols (µg/mg protein) ([4]; 0.25 µM)	Percent Sterols: 2. C28 Sterols ([4]; 0.5 µM) [%]	Percent Sterols: 3. C29 Sterols ([4]; 0.5 µM) [%]	Percent Sterols: Cholesterol ([4]; 0.5 µM) [%]	Percent Sterols: b. 7 Dehydrodesmosterol ([4]; 0.5 µM) [%]	Percent Sterols: c. Cholesta-7,24-dien-3ß-ol ([4]; 0.5 µM) [%]	also measured
CCN(CC)CCOc1ccc(C(O)(Cc2ccc(Cl)cc2)c2ccc(C)cc2)cc1 (stereo not drawn) [Triparanol, triparanol]	49	54	57	65	79	81	0.25	0.5	0.25	did not diminish Shh-Np production nor induce accumulation of unprocessed precursor	56	6.0	3.1	9.1	4.1	2.6	8.1	45	4.1	2.4	Percent Sterols: 2. C28 Sterols ([4]; 0.25 µM): 4.4%; Percent Sterols: 3. C29 Sterols ([4]; 0.25 µM): 7.8%; Percent Sterols: a. Desmosterol ([4]; 0.25 µM): 9.1%; Percent Sterols: d. Zymosterol ([4]; 0.25 µM): 9.3%; Percent Sterols: a. Desmosterol ([4]; 0.5 µM): 8.7%; Percent Sterols: d. Zymosterol ([4]; 0.5 µM): 27%; Percent Sterols: e. Cholesta-8(14)-en-3ß-ol ([4]; 0.5 µM): 8.7%; Total Sterols (µg/mg protein) ([4]; 0.5 µM): 5.1 µg/mg protein; Percent Sterols: 2. C28 Sterols ([4]; 1.0 µM): 1.5%; Percent Sterols: 3. C29 Sterols ([4]; 1.0 µM): 5.5%; Percent Sterols: Cholesterol ([4]; 1.0 µM): 51%; Percent Sterols: a. Desmosterol ([4]; 1.0 µM): 6.7%; Percent Sterols: b. 7 Dehydrodesmosterol ([4]; 1.0 µM): 2.9%; Percent Sterols: c. Cholesta-7,24-dien-3ß-ol ([4]; 1.0 µM): 2.6%; Percent Sterols: d. Zymosterol ([4]; 1.0 µM): 23%; Percent Sterols: e. Cholesta-8(14)-en-3ß-ol ([4]; 1.0 µM): 7.3%; Total Sterols (µg/mg protein) ([4]; 1.0 µM): 3.1 µg/mg protein; Higher doses that fully inhibit HNF3β and Isl-1 induction [5]: 1.0 µM; Intermediate doses that block induction of HNF3β while permitting induction of Isl-1 [5]: 0.25 µM
Clc1ccccc1CNC[C@H]1CC[C@H](CNCc2ccccc2Cl)CC1 [AY9944, AY 9944]	39	20	56	35	68	51	0.5	2.0	1.0	did not diminish Shh-Np production nor induce accumulation of unprocessed precursor	30	3.5	1.8	9.7	7.6	1.1	3.3	33	3.0	1.9	Percent Sterols: f. 7 Dehydrocholesterol ([4]; 0.25 µM): 50%; Percent Sterols: g. Lathosterol ([4]; 0.25 µM): 6.2%; Percent Sterols: e. Cholesta-8(14)-en-3ß-ol ([4]; 0.5 µM): 14%; Percent Sterols: f. 7 Dehydrocholesterol ([4]; 0.5 µM): 36%; Percent Sterols: g. Lathosterol ([4]; 0.5 µM): 7.3%; Total Sterols (µg/mg protein) ([4]; 0.5 µM): 8.3 µg/mg protein; Percent Sterols: 2. C28 Sterols ([4]; 1.0 µM): 2.6%; Percent Sterols: 3. C29 Sterols ([4]; 1.0 µM): 4.6%; Percent Sterols: Cholesterol ([4]; 1.0 µM): 34%; Percent Sterols: b. 7 Dehydrodesmosterol ([4]; 1.0 µM): 1.9%; Percent Sterols: c. Cholesta-7,24-dien-3ß-ol ([4]; 1.0 µM): 1.6%; Percent Sterols: e. Cholesta-8(14)-en-3ß-ol ([4]; 1.0 µM): 20%; Percent Sterols: f. 7 Dehydrocholesterol ([4]; 1.0 µM): 16%; Percent Sterols: g. Lathosterol ([4]; 1.0 µM): 7.9%; Percent Sterols: h. C27 Sterol 1 (mw 384) ([4]; 1.0 µM): 5.3%; Percent Sterols: i. C27 Sterol 2 (mw 382) ([4]; 1.0 µM): 6.0%; Total Sterols (µg/mg protein) ([4]; 1.0 µM): 8.3 µg/mg protein; Higher doses that fully inhibit HNF3β and Isl-1 induction [5]: 4.0 µM; Intermediate doses that block induction of HNF3β while permitting induction of Isl-1 [5]: 0.5 µM

Reference: patent EP1067939B1, “USE OF STEROIDAL ALKALOID DERIVATIVES AS INHIBITORS OF HEDGEHOG PROTEIN SIGNALING PATHWAYS” (The Johns Hopkins University, priority 1998, dated 1999)
